From US9790189B2, “Disubstituted 5-fluoro pyrimidine derivatives containing a sulfondiimine group” (Bayer Pharma Aktiengesellschaft, priority 2014, dated 2017)
In brackets after ≈: the same amount, converted by molar mass. Like-named read-outs stand apart in the source and are kept apart here.

Columns and labels:
[1] = tested on: HeLa-MaTu-ADR cells; test: Proliferation assay, HeLa-MaTu-ADR (crystal violet); assay type: cell-based; settings: Homo sapiens, 96 h, 4 days, read-out: Inhibition of HeLa-MaTu-ADR cell proliferation IC50
Procedure: (§1) Cultivated tumour cells (HeLa, human cervical tumour cells, ATCC CCL-2; NCI-H460, human non-small cell lung carcinoma cells, ATCC HTB-177; A2780, human ovarian carcinoma cells, ECACC #93112519; DU 145, hormone-independent human prostate carcinoma cells, ATCC HTB-81; HeLa-MaTu-ADR, multidrug-resistant human cervical carcinoma cells, EPO-GmbH Berlin; Caco-2, human colorectal carcinoma cells, ATCC HTB-37; B16F10, mouse melanoma cells, ATCC CRL-6475) were plated at a density of 5,000 cells/well (DU145, HeLa-MaTu-ADR), 3,000 cells/well (NCI-H460, HeLa), 2,500 cells/well (A2780), 1,500 cells/well (Caco-2), or 1,000 cells/well (B16F10) in a 96-well multititer plate in 200 μL of their respective growth medium supplemented 10% fetal calf serum. After 24 hours, the cells of one plate (zero-point plate) were stained with crystal violet (see below), while the medium of the other plates was replaced by fresh culture medium (200 μl), to which the test substances were added in various concentrations (0 μM, as well as in the range of 0.001-10 μM; the final concentration of the solvent dimethyl sulfoxide was 0.5%). The cells were incubated for 4 days in the presence of test substances. Cell proliferation was determined by staining the cells with crystal violet: the cells were fixed by adding 20 μl/measuring point of an 11% glutaric aldehyde solution for 15 minutes at room temperature. After three washing cycles of the fixed cells with water, the plates were dried at room temperature. The cells were stained by adding 100 μl/measuring point of a 0.1% crystal violet solution (pH 3.0). After three washing cycles of the stained cells with water, the plates were dried at room temperature. The dye was dissolved by adding 100 μl/measuring point of a 10% acetic acid solution. The extinction was determined by photometry at a wavelength of 595 nm. The change of cell number, in percent, was calculated by normalization of the measured values to the extinction values of the zero-point plate (=0%) and the extinction of the untreated (0 μm) cells (=100%).

[2] = tested on: DU145 cells; test: Proliferation assay, DU145 (crystal violet); assay type: cell-based; settings: Homo sapiens, DU-145, 96 h; DU145, 4 days; read-out: Inhibition of DU145 cell proliferation IC50
Procedure: as §1

[3] = Caco-2 permeation assay (Method 5); assay type: in vitro ADME; settings: human; for Papp A→B at 2 h, 2 µM / Papp B→A at 2 h, 2 µM: pH 7.2, Caco-2, 2 μM test compound; for Papp A→B at 2 h, 2 µM: read-out: Papp A−B (Mari); for Papp B→A at 2 h, 2 µM: read-out: Papp B−A (Mari)
Procedure: Cells were maintained at 37° C. in a humidified 5% CO2 atmosphere. Medium was changed every 2-3 day. Before running the permeation assay, the culture medium was replaced by a FCS-free hepes-carbonate transport buffer (pH 7.2). For assessment of monolayer integrity the transepithelial electrical resistance (TEER) was measured. Test compounds were predissolved in DMSO and added either to the apical or basolateral compartment in final concentration of 2 μM in transport buffer. Before and after 2 h incubation at 37° C. samples were taken from both compartments. Analysis of compound content was done after precipitation with methanol by LC/MS/MS analysis. Permeability (Papp) was calculated in the apical to basolateral (A→B) and basolateral to apical (B→A) directions. […] The efflux ratio basolateral (B) to apical (A) was calculated by dividing the Papp B−A by the Papp A−B. In addition the compound recovery was calculated.

[4] = Equilibrium shake flask solubility, high throughput from DMSO solution (Method 4a); assay type: physicochemical; settings: phosphate buffer pH 6.5 with 1% DMSO, aqueous buffer, phosphate buffer pH 6.5, 24 hrs, room temperature
Source text: 4. Equilibrium Shake Flask Solubility Assays:
4a) High Throughput Determination of Aqueous Drug Solubility (100 mmolar in DMSO)
The high throughput screening method to determine aqueous drug solubility is based on:
Thomas Onofrey and Greg Kazan, Performance and correlation of a 96-well high throughput screening method to determine aqueous drug solubility, http://www.millipore.com/publications.nsf/a73664f9f981af8c852569b9005b4eee/e565516fb76e7435852 56da30052db77/$FILE/AN1731EN00.pdf
The assay was run in a 96-well plate format. Each well was filled with an individual compound.
All pipetting steps were performed using a robot platform.
100 μl of a 10 mmolar solution of drug in DMSO were concentrated by vacuum centrifugation and resolved in 10 μl DMSO. 990 μl phosphate buffer pH 6.5 were added. The content of DMSO amounts to 1%. The multititer plate was put on a shaker and mixed for 24 hrs at room temperature. 150 μl of the suspension were transferred to a filtration plate. After filtration using a vacuum manifold the filtrate was diluted 1:400 and 1:8000. A second microtiter plate with 20 μl of a 10 mM solution of drug in DMSO served for calibration. Two concentrations (0.005 μM and 0.0025 μM) were prepared by dilution in DMSO/water 1:1 and used for calibration. Filtrate and calibration plates were quantified by HPLC-MS/MS.
Preparation of 0.1 m Phosphate Buffer pH 6.5:
61.86 g NaCl and 39.54 mg KH2PO4 were solved in water and filled up to […]. The mixture was diluted 1:10 with water and the pH adjusted to 6.5 by NaOH.
Materials: • Millipore MultiScreenHTS-HV Plate 0.45 μm
Chromatographic conditions were as follows: • HPLC column: Ascentis Express C18 2.7 μm 4.6×30 mm • Injection volume: 1 μl • Flow: 1.5 ml/min • Mobile phase: acidic gradient • A: Water/0.05% HCOOH • B: Acetonitrile/0.05% HCOOH • 0 min→95% A 5% B • 0.75 min→5% A 95% B • 2.75 min→5% A 95% B • 2.76 min→95% A 5% B • 3 min→95% A 5% B
The areas of sample- and calibration injections were determined by using mass spectromety software (AB SCIEX: Discovery Quant 2.1.3. and Analyst 1.6.1). The calculation of the solubility value (in mg/l) was executed by an inhouse developed Excel macro.

[5] = tested on: MOLM-13 cells; test: Proliferation assay, MOLM-13 (Cell Titre-Glo); assay type: cell-based; settings: Homo sapiens; MOLM-13, 72-hour exposure; read-out: Inhibition of MOLM-13 cell proliferation IC50
Procedure: Non-adherent MOLM-13 human acute myeloid leukemia cells (DSMZ ACC 554) were seeded at a density of 5,000 cells/well in a 96-well multititer plate in 100 μL of growth medium supplemented 10% fetal calf serum. After 24 hours, cell viability of one plate (zero-point plate) was determined with the Cell Titre-Glo Luminescent Cell Viability Assay (Promega), while 50 μL of test compound containing medium was added to the wells of the other plates (final concentrations in the range of 0.001-10 μM and DMSO controls; the final concentration of the solvent dimethyl sulfoxide was 0.5%). Cell viability was assessed after 72-hour exposure with the Cell Titre-Glo Luminescent Cell Viability Assay (Promega).

[6] = biological target: T1, CDK2/CycE (Homo sapiens, UniProt P24941); test: CDK2/CycE kinase assay (TR-FRET, Method 2a)
[7] = tested on: NCI-H460 cells; test: Proliferation assay, NCI-H460 (crystal violet); assay type: cell-based; settings: Homo sapiens, 96 h; NCI-H460, 4 days; read-out: Inhibition of NCI-H460 cell proliferation IC50
Procedure: as §1

[8] = tested on: B16F10 cells; test: Proliferation assay, B16F10 (crystal violet); assay type: cell-based; settings: Mus musculus, B16-F10, 96 h; B16F10, 4 days; read-out: Inhibition of B16F10 cell proliferation IC50
Procedure: as §1

[9] = biological target: T1, CDK2/CycE; test: CDK2/CycE high ATP kinase assay (TR-FRET, Method 2b)
[10] = tested on: HeLa cells; test: Proliferation assay, HeLa (crystal violet); assay type: cell-based; settings: Homo sapiens, 96 h, 4 days, read-out: Inhibition of HeLa cell proliferation IC50
Procedure: as §1

[11] = tested on: Caco-2 cells; test: Proliferation assay, Caco-2 (crystal violet); assay type: cell-based; settings: Homo sapiens, 96 h; Caco-2, 4 days; read-out: Inhibition of Caco-2 cell proliferation IC50
Procedure: as §1

[12] = tested on: A2780 cells; test: Proliferation assay, A2780 (crystal violet); assay type: cell-based; settings: Homo sapiens, 96 h; A2780, 4 days; read-out: Inhibition of A2780 cell proliferation IC50
Procedure: as §1

[13] = biological target: T2, CDK9/CycT1 (Homo sapiens, UniProt P50750)
[14] = biological target: T2, CDK9/CycT1; test: CDK9/CycT1 kinase assay (TR-FRET, Method 1a)

T2 sequence (P50750 whole entry): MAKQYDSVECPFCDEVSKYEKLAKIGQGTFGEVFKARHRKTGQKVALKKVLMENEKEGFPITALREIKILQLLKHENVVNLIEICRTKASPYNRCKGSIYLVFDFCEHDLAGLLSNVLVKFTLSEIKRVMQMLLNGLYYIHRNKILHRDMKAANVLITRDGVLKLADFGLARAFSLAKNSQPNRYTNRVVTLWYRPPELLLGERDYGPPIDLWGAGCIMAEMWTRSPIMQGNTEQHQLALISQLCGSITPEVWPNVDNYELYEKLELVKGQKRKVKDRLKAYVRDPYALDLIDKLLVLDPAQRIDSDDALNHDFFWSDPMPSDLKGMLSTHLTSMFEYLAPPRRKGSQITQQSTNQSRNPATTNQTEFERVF
T2 sequence (O60563 whole entry partner): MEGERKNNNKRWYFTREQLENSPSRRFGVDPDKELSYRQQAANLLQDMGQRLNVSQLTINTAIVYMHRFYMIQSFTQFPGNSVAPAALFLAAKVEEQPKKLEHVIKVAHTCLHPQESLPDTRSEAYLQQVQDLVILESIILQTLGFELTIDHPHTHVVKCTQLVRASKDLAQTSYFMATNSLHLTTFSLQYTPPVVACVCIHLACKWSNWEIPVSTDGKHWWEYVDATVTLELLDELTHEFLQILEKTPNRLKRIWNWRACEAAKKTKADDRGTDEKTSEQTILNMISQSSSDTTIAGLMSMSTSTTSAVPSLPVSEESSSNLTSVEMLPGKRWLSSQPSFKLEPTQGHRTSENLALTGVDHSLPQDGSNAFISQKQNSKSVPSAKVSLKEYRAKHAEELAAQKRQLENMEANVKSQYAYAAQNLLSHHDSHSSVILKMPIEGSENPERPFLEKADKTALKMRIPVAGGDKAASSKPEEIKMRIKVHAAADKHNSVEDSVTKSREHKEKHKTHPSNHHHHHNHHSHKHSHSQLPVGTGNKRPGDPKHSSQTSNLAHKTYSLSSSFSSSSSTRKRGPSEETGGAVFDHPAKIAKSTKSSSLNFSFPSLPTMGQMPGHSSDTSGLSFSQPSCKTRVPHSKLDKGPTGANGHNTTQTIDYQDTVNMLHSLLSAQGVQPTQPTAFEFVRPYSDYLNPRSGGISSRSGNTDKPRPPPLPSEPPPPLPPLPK

Row | IC50 [1] | IC50 [2] | Papp A→B at 2 h, 2 µM [3] | Papp B→A at 2 h, 2 µM [3] | solubility thermodynamic at 24 h [4] | IC50 [5] | IC50 [6] | IC50 [7] | IC50 [8] | IC50 [9] | IC50 [10] | IC50 [11] | IC50 [12] | IC50 [13] | Selectivity high ATP CDK9 over high ATP CDK2: IC50 (high ATP CDK2)/IC50 (high ATP CDK9) ([13]; Methods 1b and 2b) | efflux ratio at 2 h, 2 µM ([3]; Caco-2, pH 7.2) | IC50 [14] | Selectivity CDK9 over CDK2: IC50 (CDK2)/IC50 (CDK9) ([14]; Methods 1a and 2a) | Structure (SMILES)
1 | 194 nM | 130 nM | 3.33 ×10⁻⁶ cm/s | 5.19 ×10⁻⁶ cm/s | 2.2 µg/mL (≈ 4.15 µM) | 36 nM | 400 nM | 149 nM | 237 nM | 2990 nM | 104 nM | 144 nM | – | – | – | – | – | – | COc1cc(F)ccc1-c1nc(Nc2cc(CS(C)(=N)=N)cc(S(F)(F)(F)(F)F)c2)ncc1F [Example 8, 5-Fluoro-4-(4-fluoro-2-methoxyphenyl)-N-{3-[(S-methylsulfonodiimidoyl)methyl]-5-(pentafluoro-λ^6-sulfanyl)phenyl}pyrimidin-2-amine]
2 | 696 nM | 581 nM | – | – | – | – | 580 nM | 935 nM | 1130 nM | 4290 nM | 535 nM | 847 nM | 355 nM | – | – | – | – | – | C#CCN=S(C)(=N)Cc1cc(F)cc(Nc2ncc(F)c(-c3ccc(F)cc3OC)n2)c1 (racemic) [Example 4, (rac)-5-Fluoro-4-(4-fluoro-2-methoxyphenyl)-N-(3-fluoro-5-{[S-methyl-N-(prop-2-yn-1-yl)sulfonodiimidoyl]methyl}phenyl)pyrimidin-2-amine]
3 | 793 nM | 636 nM | – | – | 97 µg/mL (≈ 223 µM) | – | 1300 nM | 968 nM | 1120 nM | 13000 nM | 412 nM | 849 nM | 333 nM | – | – | – | – | – | CN=S(C)(=N)Cc1cc(F)cc(Nc2ncc(F)c(-c3ccc(F)cc3OC)n2)c1 (racemic) [Example 2, (rac)-N-{3-[(N,S-Dimethylsulfonodiimidoyl)methyl]-5-fluorophenyl}-5-fluoro-4-(4-fluoro-2-methoxyphenyl)pyrimidin-2-amine]
4 | – | – | 3.21 ×10⁻⁶ cm/s | 3.57 ×10⁻⁶ cm/s | 1.2 µg/mL (≈ 2.32 µM) | 244 nM | 2300 nM | – | – | ≥ 20000 nM | 346 nM | – | 337 nM | 26 nM | 769 | 1.1 | 17 nM | 135 | CS(=N)(=N)Cc1cc(Nc2ncc(F)c(-c3ccc(F)cc3F)n2)cc(S(F)(F)(F)(F)F)c1 [Example 7, 4-(2,4-Difluorophenyl)-5-fluoro-N-{3-[(S-methylsulfonodiimidoyl)methyl]-5-(pentafluoro-λ^6-sulfanyl)phenyl}pyrimidin-2-amine]
5 | – | – | – | – | 259 µg/mL (≈ 540 µM) | – | 970 nM | – | – | 19800 nM | 507 nM | – | – | – | – | – | – | – | COc1cc(F)ccc1-c1nc(Nc2cc(F)cc(CS(C)(=N)=NCCCO)c2)ncc1F (racemic) [Example 6, (rac)-3-{[(3-Fluoro-5-{[5-fluoro-4-(4-fluoro-2-methoxyphenyl)pyrimidin-2-yl]amino}benzyl)(imino)methyl-λ^6-sulfanylidene]amino}propan-1-ol]
6 | 80 nM | 42 nM | 2.88 ×10⁻⁶ cm/s | 19.9 ×10⁻⁶ cm/s | – | – | 190 nM | 193 nM | 122 nM | 1470 nM | 73 nM | 94 nM | 35 nM | – | – | – | – | – | COc1cc(F)ccc1-c1nc(Nc2cc(F)cc(CS(C)(=N)=NC#N)c2)ncc1F (racemic) [Example 5, (rac)-[(3-Fluoro-5-{[5-fluoro-4-(4-fluoro-2-methoxyphenyl)pyrimidin-2-yl]amino}benzyl)(imino)methyl-λ^6-sulfanylidene]cyanamide]
7 | 863 nM | 1050 nM | – | – | 1.4 µg/mL (≈ 2.81 µM) | – | 1400 nM | 1090 nM | 1270 nM | – | 991 nM | 1000 nM | 548 nM | – | – | – | – | – | COc1cc(F)ccc1-c1nc(Nc2cc(F)cc(CS(C)(=N)=Nc3ccccc3)c2)ncc1F (racemic) [Example 3, (rac)-5-Fluoro-4-(4-fluoro-2-methoxyphenyl)-N-{3-fluoro-5-[(S-methyl-N-phenylsulfonodiimidoyl)methyl]phenyl}pyrimidin-2-amine]
